Test systems include COLO 205 colon; EKVX NSCLC; HCC-2998 colon; HCT-116 colon; HOP-62 NSCLC; KM12 colon; MCF7 breast; MDA-MB-231 breast; MDA-MB-435; NCI-H460 lung; OVCAR-5 ovarian; SF-268 CNS; SK-MEL-28 melanoma; SNB-19 CNS; SR leukemia; TK-10 renal; U251 CNS; UACC-62 melanoma; SNB-75 CNS.
Holding throughout (experiment): DTP human tumour cell line panel, 48 h

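Cultured in 96-well plates, cells were exposed to test compound for 48 hours across five concentrations. Definition used: TGI = concentration required for complete inhibition of growth.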

This passage reports TGI results from PubChem BioAssay (NCI).

For orientation: TGI means the concentration at which net growth stops. Higher therefore signals less potent growth arrest.

In the case of `C=C1CN2CC(=C)CN(C1)CS(=O)(=O)N1CC(=C)CN(CC(=C)C1)S(=O)(=O)N1CC(=C)CN(CC(=C)C1)S(=O)(=O)C2`, the TGI in the assay on COLO 205 colon was above 100 µM; in the assay on EKVX NSCLC, above 100 µM; in the assay with HCC-2998 colon it was 37.5 µM; in the assay on HCT-116 colon it was above 100 µM; in the assay with HOP-62 NSCLC, 53.7 µM; in the assay with KM12 colon, above 100 µM. In addition, the TGI in the assay on MCF7 breast was above 100 µM; in the assay with MDA-MB-231 breast it was 92.1 µM; in the assay on MDA-MB-435, above 100 µM; with NCI-H460 lung it was above 100 µM; in the assay on OVCAR-5 ovarian, above 100 µM; with SF-268 CNS, above 100 µM. The TGI with SK-MEL-28 melanoma is 45.6 µM; in the assay on SNB-19 CNS, above 100 µM; in the assay on SR leukemia, above 100 µM; in the assay on TK-10 renal it was 51.5 µM; in the assay on U251 CNS, above 100 µM; with UACC-62 melanoma, above 100 µM.
Take `O=C1NC2OC(C(O)CO)C(O)C2O1` (stereo not given): the TGI in the assay with COLO 205 colon, in the assay on EKVX NSCLC, with HCC-2998 colon, in the assay with HCT-116 colon, with KM12 colon and in the assay with NCI-H460 lung was above 100 µM in each case. The TGI in the assay with OVCAR-5 ovarian, in the assay on SF-268 CNS, in the assay on SK-MEL-28 melanoma, with SNB-19 CNS, with SNB-75 CNS and in the assay with SR leukemia was above 100 µM in each case. Besides, the TGI in the assay on TK-10 renal, with U251 CNS and in the assay on UACC-62 melanoma was above 100 µM in each case.
With `O=C1O[C@H](c2ccc3c(c2)OCO3)[C@H]2CO[C@@H](c3ccc4c(c3)OCO4)[C@@H]12`, the TGI in the assay on COLO 205 colon, in the assay on EKVX NSCLC, in the assay with HCC-2998 colon, in the assay on HCT-116 colon, in the assay on HOP-62 NSCLC and in the assay on KM12 colon was above 100 µM throughout. In addition, the TGI in the assay with MCF7 breast, with MDA-MB-231 breast, in the assay on MDA-MB-435, in the assay on NCI-H460 lung, in the assay with OVCAR-5 ovarian and in the assay on SF-268 CNS was above 100 µM in each case. Moreover, the TGI with SK-MEL-28 melanoma, in the assay with SNB-19 CNS, in the assay on SR leukemia, in the assay on TK-10 renal, in the assay with U251 CNS and with UACC-62 melanoma was above 100 µM throughout.
With `CSc1sc2ccccc2[s+]1`, the TGI with COLO 205 colon, in the assay with HCC-2998 colon, with HCT-116 colon, in the assay with HOP-62 NSCLC, in the assay on KM12 colon and in the assay on NCI-H460 lung was above 100 µM each time. Also, the TGI in the assay with OVCAR-5 ovarian, in the assay with SF-268 CNS, in the assay with SNB-19 CNS, in the assay on SNB-75 CNS, with SR leukemia and in the assay on TK-10 renal was above 100 µM throughout. The TGI in the assay on U251 CNS and with UACC-62 melanoma was above 100 µM in each case.
With `CCC(=O)ONC(=O)Cn1ccc([N+](=O)[O-])n1`, the TGI in the assay with COLO 205 colon, in the assay on EKVX NSCLC, with HCC-2998 colon, in the assay with HCT-116 colon, with HOP-62 NSCLC and in the assay with KM12 colon was above 100 µM each time. The TGI in the assay on MCF7 breast, with MDA-MB-231 breast, with MDA-MB-435, in the assay on OVCAR-5 ovarian, in the assay with SF-268 CNS and in the assay on SK-MEL-28 melanoma was above 100 µM in each case. In addition, the TGI in the assay on SNB-19 CNS, in the assay on SNB-75 CNS, in the assay with SR leukemia, in the assay with TK-10 renal and in the assay with UACC-62 melanoma was above 100 µM in each case.
Regarding `O=C1CSC(/C(=N/Nc2ccccc2)c2nc3ccccc3[nH]2)=N1`, the TGI was above 100 µM with COLO 205 colon; above 100 µM in the assay on EKVX NSCLC; above 100 µM in the assay on HCC-2998 colon; above 100 µM with HCT-116 colon; 67.3 µM in the assay on HOP-62 NSCLC; above 100 µM in the assay with KM12 colon. Besides, the TGI was above 100 µM in the assay with NCI-H460 lung; above 100 µM with OVCAR-5 ovarian; above 100 µM in the assay on SF-268 CNS; 79 µM in the assay on SK-MEL-28 melanoma; above 100 µM in the assay with SNB-19 CNS; 97.6 µM with SNB-75 CNS. Besides, the TGI in the assay on SR leukemia is 31.1 µM; with TK-10 renal it was above 100 µM; in the assay with U251 CNS, above 100 µM; with UACC-62 melanoma it was above 100 µM.
`C=CCc1ccc(Oc2cc(CC=C)c3c(c2O)O[C@@H](CO)[C@H]3c2ccc(O)c(-c3cc(CC=C)ccc3O)c2)cc1`: the TGI in the assay on COLO 205 colon, in the assay on EKVX NSCLC, in the assay on HCC-2998 colon, with HCT-116 colon, in the assay with HOP-62 NSCLC and with KM12 colon was above 100 µM in each case. The TGI in the assay with NCI-H460 lung, in the assay on OVCAR-5 ovarian, in the assay with SF-268 CNS, with SK-MEL-28 melanoma, in the assay on SNB-19 CNS and with SNB-75 CNS was above 100 µM throughout. The TGI in the assay with SR leukemia was 46.9 µM; in the assay on TK-10 renal, above 100 µM; in the assay with U251 CNS it was 51.8 µM; with UACC-62 melanoma, 85 µM.
Turning to `CCOC(=O)c1ccc(C)c(N=NN(C)C)c1`, the TGI with COLO 205 colon, in the assay with EKVX NSCLC, in the assay on HCC-2998 colon, in the assay on HCT-116 colon, with HOP-62 NSCLC and with KM12 colon was above 100 µM throughout. Further, the TGI in the assay with NCI-H460 lung, with OVCAR-5 ovarian, with SF-268 CNS, with SK-MEL-28 melanoma, in the assay with SNB-19 CNS and with SNB-75 CNS was above 100 µM in each case. For the same compound, the TGI in the assay on SR leukemia, in the assay with TK-10 renal, in the assay with U251 CNS and in the assay with UACC-62 melanoma was above 100 µM throughout.
For the compound `COc1c(C(C)C)cc2c3c1OC(=O)[C@@]31CCCC(C)(C)C1CC2` (stereo not given in full), the TGI with COLO 205 colon is 31.9 µM; with EKVX NSCLC, 65.3 µM; in the assay with HCC-2998 colon, above 100 µM; in the assay on HCT-116 colon it was 29.1 µM; in the assay on HOP-62 NSCLC it was above 100 µM; with NCI-H460 lung, above 100 µM. In addition, the TGI was above 100 µM in the assay on OVCAR-5 ovarian; above 100 µM with SF-268 CNS; above 100 µM in the assay with SK-MEL-28 melanoma; 51.8 µM in the assay on SNB-19 CNS; 55.7 µM in the assay on SNB-75 CNS; above 100 µM with SR leukemia. The TGI is 99.8 µM in the assay on TK-10 renal, above 100 µM in the assay with U251 CNS and above 100 µM in the assay with UACC-62 melanoma.
